Test results: patent US20240150401A1, “INSECT NEUROPEPTIDES 7” (Solasta Bio Limited, priority 2022, published 2024)

Experiments:
Assay type in all cases: in vivo
[1] = test system: Myzus persicae aphids; assay: Leaf dip assay (IRAC susceptibility test method 019), mortality assessment; details: unformulated, mortality assessed at 72, 96 and 120 hours, compared to vehicle and Spirotetramat (FIGS. 6-8)
Protocol: The assay was carried out based on IRAC susceptibility test method 019 (https://irac-online.org/methods/aphids-adultnymphs/).
Fill a small 4 cm wide 3 cm high dish with a 1% agar treatment solution of the active chemical or control (ensuring 1 cm gap between the agar and the lid) and leave to set. Dip a 2.5 cm leaf disc into 3 ml of treatment solution allowing the treatment to coat the leaf. Leave the disc to dry for 1 hour and place onto the set agar. Place insects (Myzus persicae aphids) onto each of the leaf discs. Each unit is sealed with a close-fitting, ventilated lid. Place the agar dishes in a small plastic tray lined with moist tissue paper and ensure the water trays in the bottom of the incubator are filled with clean water and place within the incubator. An assessment of mortality is made at 72, 96 and 120 hours. Leaf dip assays were performed with SB-P-66, and compared to a negative control vehicle and a current commercial insecticide Spirotetramat. The activity of SB-P-66 is shown in FIGS. 6 and 7; SB-P-66 has good activity whilst being eco-friendly and targeted to specific pests unlike broad spectrum chemical insecticides such as Spirotetramat.

[2] = test system: bees; assay: Bee oral toxicity test (adapted from OECD Test No. 247: Bumblebee, Acute Oral Toxicity Test); details: 96 hours after application, compared to Imidacloprid (FIG. 9)
Protocol: Bee oral testing protocol was carried out adapted from OECD Test No. 247: Bumblebee, Acute Oral Toxicity Test. The toxicity of SB-P-66 was compared with a negative control of sucrose or vehicle, and with a current commercial insecticide Imidacloprid.

[3] = test system: Aphis fabae; assay: Field trials on vining peas (PGRO); details: unformulated, naturally infested, comparable to commercial insecticides (FIGS. 10, 13)
Protocol: (§1) Field trials for peptide SB-P-66, unformulated, against various insects were conducted by third-party organisations PGRO and AgriScience.

[4] = test system: Aphis gossypii; assay: Field trials on cotton and melon (AgriScience); details: unformulated, naturally infested, comparable to commercial insecticides (FIGS. 11, 12)
Protocol: as §1

[5] = test system: Amrasca biguttula (leaf hopper); assay: Field trials; details: unformulated; naturally infested; over time; comparable to commercial insecticides (FIG. 14)
Protocol: as §1

[6] = test system: Myzus persicae; assay: Field trials; details: unformulated; comparable to commercial insecticides
Protocol: as §1

For “H-PAFSSWG-NH2 [SB-P-66, [Hy]-PAFSSWG-[NH2]]”, the “activity against Myzus persicae (mortality)” value [1] was “good activity”, the “bee oral toxicity (% survival)” value [2] was “far lower toxicity” and the “efficacy in field trials against Aphis fabae” value [3] was “good efficacy”. The “efficacy in field trials against Aphis gossypii” value [4] was “good efficacy”, the “efficacy in field trials against Amrasca biguttula” value [5] was “good efficacy” and the “efficacy in field trials against Myzus persicae” value [6] was “good efficacy”.
